Species: Rattus norvegicus
Experiment: Open TG-GATES - Regimen: Single
Format: toxicity, organism-based, Sprague-Dawley
Parameters: regimen Single, gender Male, age 6 weeks
Details: in vivo, po, route gavage; for APTT / Bas / Eos / Fbg / Hb / Ht / Lym / MCH / MCHC / MCV / Mono / Neu / PT / Plat / RBC / Ret / WBC: tissue Blood; for KIDNEY_L / KIDNEY_R / KIDNEY_TOTAL: tissue Kidney; for LIVER: tissue Liver; for A/G / ALP / ALT / AST / BUN / CRE / Ca / Cl / DBIL / GLC / IP / K / LDH / Na / PL / RALB / TBIL / TC / TG / TP / gamma-GTP: tissue Plasma
[1] = 300 mg/kg, 3 h, dose level Middle
[2] = 300 mg/kg, 6 h, dose level Middle
[3] = 300 mg/kg, 9 h, dose level Middle
[4] = 300 mg/kg, 24 h, dose level Middle
[5] = 1000 mg/kg, 3 h, dose level High
[6] = 1000 mg/kg, 6 h, dose level High
[7] = 1000 mg/kg, 9 h, dose level High
[8] = 1000 mg/kg, 24 h, dose level High

## CN(C)[C@@H]1C(O)=C(C(N)=O)C(=O)[C@@]2(O)C(O)=C3C(=O)c4c(O)cccc4[C@@](C)(O)[C@H]3C[C@@H]12 [TETRACYCLINE]
[1]
  TERMINAL_BW: 186.7 g
  APTT: 16.4 s
  Bas: 0%
  Eos: 0.6%
  Fbg: 198 mg/dL
  Hb: 13.6 g/dL
  Ht: 41%
  Lym: 76.4%
  MCH: 21.9 pg
  MCHC: 33.1%
  MCV: 66.2 fL
  Mono: 8.4%
  Neu: 14.8%
  PT: 12.3 s
  Plat: 97.2 x10_4/uL
  RBC: 619.2 x10_4/ul
  Ret: 10%
  WBC: 122.2 x10_2/uL
  KIDNEY_L: 0.9 g
  KIDNEY_R: 0.9 g
  KIDNEY_TOTAL: 1.8 g
  LIVER: 9 g
  A/G: 1.9
  ALP: 940.2 IU/L
  ALT: 42.2 IU/L
  AST: 74.4 IU/L
  BUN: 13.2 mg/dL
  CRE: 0.5 mg/dL
  Ca: 10.9 mg/dL
  Cl: 104.6 meq/L
  DBIL: 0.026 mg/dL
  GLC: 179.6 mg/dL
  IP: 11.5 mg/dL
  K: 5.4 meq/L
  LDH: 103 IU/L
  Na: 137.2 meq/L
  PL: 129.6 mg/dL
  RALB: 3.6 g/dL
  TBIL: 0.4 mg/dL
  TC: 71.4 mg/dL
  TG: 39.4 mg/dL
  TP: 5.5 g/dL
  gamma-GTP: 1.6 IU/L
[2]
  TERMINAL_BW: 183.9 g
  APTT: 17.1 s
  Bas: 0%
  Eos: 0.6%
  Fbg: 206.8 mg/dL
  Hb: 13.4 g/dL
  Ht: 40.3%
  Lym: 78.6%
  MCH: 22.5 pg
  MCHC: 33.3%
  MCV: 67.7 fL
  Mono: 5.6%
  Neu: 15.4%
  PT: 12.1 s
  Plat: 103.8 x10_4/uL
  RBC: 595.2 x10_4/ul
  Ret: 10.1%
  WBC: 91.7 x10_2/uL
  KIDNEY_L: 0.9 g
  KIDNEY_R: 0.9 g
  KIDNEY_TOTAL: 1.7 g
  LIVER: 8.3 g
  A/G: 2.1
  ALP: 930.4 IU/L
  ALT: 36.4 IU/L
  AST: 72.4 IU/L
  BUN: 12.4 mg/dL
  CRE: 0.4 mg/dL
  Ca: 10.7 mg/dL
  Cl: 106 meq/L
  DBIL: 0.012 mg/dL
  GLC: 193.8 mg/dL
  IP: 11.1 mg/dL
  K: 5.2 meq/L
  LDH: 104.4 IU/L
  Na: 137.2 meq/L
  PL: 130.6 mg/dL
  RALB: 3.6 g/dL
  TBIL: 0.4 mg/dL
  TC: 72.8 mg/dL
  TG: 49.4 mg/dL
  TP: 5.4 g/dL
  gamma-GTP: 1.4 IU/L
[3]
  TERMINAL_BW: 180.6 g
  APTT: 16.6 s
  Bas: 0%
  Eos: 0.6%
  Fbg: 211 mg/dL
  Hb: 13.1 g/dL
  Ht: 39.7%
  Lym: 79.6%
  MCH: 21.7 pg
  MCHC: 33.1%
  MCV: 65.7 fL
  Mono: 7.6%
  Neu: 12.4%
  PT: 12.3 s
  Plat: 102.2 x10_4/uL
  RBC: 603.4 x10_4/ul
  Ret: 9.1%
  WBC: 101.6 x10_2/uL
  KIDNEY_L: 0.8 g
  KIDNEY_R: 0.8 g
  KIDNEY_TOTAL: 1.7 g
  LIVER: 7.5 g
  A/G: 2.4
  ALP: 849.2 IU/L
  ALT: 37 IU/L
  AST: 71.2 IU/L
  BUN: 13.4 mg/dL
  CRE: 0.4 mg/dL
  Ca: 10.6 mg/dL
  Cl: 106.2 meq/L
  DBIL: 0.036 mg/dL
  GLC: 182.8 mg/dL
  IP: 10.4 mg/dL
  K: 4.7 meq/L
  LDH: 92.6 IU/L
  Na: 138.4 meq/L
  PL: 126.8 mg/dL
  RALB: 3.8 g/dL
  TBIL: 0.4 mg/dL
  TC: 75.6 mg/dL
  TG: 24.6 mg/dL
  TP: 5.4 g/dL
  gamma-GTP: 2.2 IU/L
[4]
  TERMINAL_BW: 200.3 g
  APTT: 15.9 s
  Bas: 0%
  Eos: 0.8%
  Fbg: 202.8 mg/dL
  Hb: 13 g/dL
  Ht: 39.3%
  Lym: 83.6%
  MCH: 21.6 pg
  MCHC: 33.2%
  MCV: 65 fL
  Mono: 8.2%
  Neu: 7.4%
  PT: 12.1 s
  Plat: 117.3 x10_4/uL
  RBC: 605 x10_4/ul
  Ret: 9.9%
  WBC: 102.9 x10_2/uL
  KIDNEY_L: 0.9 g
  KIDNEY_R: 0.9 g
  KIDNEY_TOTAL: 1.9 g
  LIVER: 8.5 g
  A/G: 2.2
  ALP: 1031.8 IU/L
  ALT: 41.6 IU/L
  AST: 73.8 IU/L
  BUN: 18.4 mg/dL
  CRE: 0.5 mg/dL
  Ca: 11.3 mg/dL
  Cl: 105 meq/L
  DBIL: 0.016 mg/dL
  GLC: 184.4 mg/dL
  IP: 9.9 mg/dL
  K: 5 meq/L
  LDH: 96.8 IU/L
  Na: 141 meq/L
  PL: 149.2 mg/dL
  RALB: 3.8 g/dL
  TBIL: 0.4 mg/dL
  TC: 80.8 mg/dL
  TG: 57.2 mg/dL
  TP: 5.6 g/dL
  gamma-GTP: 1.4 IU/L
[5]
  TERMINAL_BW: 185.9 g
  APTT: 15.7 s
  Bas: 0%
  Eos: 0.4%
  Fbg: 217.2 mg/dL
  Hb: 13.5 g/dL
  Ht: 40.5%
  Lym: 79.8%
  MCH: 22.1 pg
  MCHC: 33.3%
  MCV: 66.4 fL
  Mono: 6.4%
  Neu: 13.2%
  PT: 11.9 s
  Plat: 103.4 x10_4/uL
  RBC: 610 x10_4/ul
  Ret: 9.5%
  WBC: 108.1 x10_2/uL
  KIDNEY_L: 0.8 g
  KIDNEY_R: 0.8 g
  KIDNEY_TOTAL: 1.7 g
  LIVER: 8.5 g
  A/G: 2.2
  ALP: 770.2 IU/L
  ALT: 44 IU/L
  AST: 72.8 IU/L
  BUN: 15.6 mg/dL
  CRE: 0.5 mg/dL
  Ca: 11.1 mg/dL
  Cl: 105.8 meq/L
  DBIL: 0.03 mg/dL
  GLC: 184.8 mg/dL
  IP: 12 mg/dL
  K: 5 meq/L
  LDH: 142.4 IU/L
  Na: 138 meq/L
  PL: 132 mg/dL
  RALB: 3.8 g/dL
  TBIL: 0.6 mg/dL
  TC: 77.8 mg/dL
  TG: 36.8 mg/dL
  TP: 5.6 g/dL
  gamma-GTP: 1.8 IU/L
[6]
  TERMINAL_BW: 184.3 g
  APTT: 17.2 s
  Bas: 0%
  Eos: 0.4%
  Fbg: 193 mg/dL
  Hb: 13.4 g/dL
  Ht: 40.4%
  Lym: 79%
  MCH: 21.9 pg
  MCHC: 33.1%
  MCV: 66.1 fL
  Mono: 7.2%
  Neu: 13.4%
  PT: 12.2 s
  Plat: 101.1 x10_4/uL
  RBC: 612.4 x10_4/ul
  Ret: 10.1%
  WBC: 100.4 x10_2/uL
  KIDNEY_L: 0.9 g
  KIDNEY_R: 0.9 g
  KIDNEY_TOTAL: 1.8 g
  LIVER: 8.1 g
  A/G: 1.8
  ALP: 872.8 IU/L
  ALT: 39 IU/L
  AST: 74.2 IU/L
  BUN: 13.4 mg/dL
  CRE: 0.4 mg/dL
  Ca: 10.9 mg/dL
  Cl: 106.4 meq/L
  DBIL: 0.018 mg/dL
  GLC: 186.6 mg/dL
  IP: 11.9 mg/dL
  K: 5.4 meq/L
  LDH: 128.4 IU/L
  Na: 137.4 meq/L
  PL: 127 mg/dL
  RALB: 3.4 g/dL
  TBIL: 0.4 mg/dL
  TC: 71.2 mg/dL
  TG: 36.2 mg/dL
  TP: 5.2 g/dL
  gamma-GTP: 1.6 IU/L
[7]
  TERMINAL_BW: 180.6 g
  APTT: 16.8 s
  Bas: 0%
  Eos: 0.2%
  Fbg: 199.2 mg/dL
  Hb: 13.1 g/dL
  Ht: 40%
  Lym: 83.4%
  MCH: 21.5 pg
  MCHC: 32.8%
  MCV: 65.4 fL
  Mono: 5.8%
  Neu: 11%
  PT: 12.3 s
  Plat: 104 x10_4/uL
  RBC: 610.6 x10_4/ul
  Ret: 8.9%
  WBC: 66.5 x10_2/uL
  KIDNEY_L: 0.8 g
  KIDNEY_R: 0.8 g
  KIDNEY_TOTAL: 1.6 g
  LIVER: 7.7 g
  A/G: 2.2
  ALP: 769.6 IU/L
  ALT: 33.8 IU/L
  AST: 66.4 IU/L
  BUN: 12.8 mg/dL
  CRE: 0.4 mg/dL
  Ca: 11 mg/dL
  Cl: 107.4 meq/L
  DBIL: 0.044 mg/dL
  GLC: 192.4 mg/dL
  IP: 11.5 mg/dL
  K: 4.9 meq/L
  LDH: 136.2 IU/L
  Na: 139.8 meq/L
  PL: 128.8 mg/dL
  RALB: 3.7 g/dL
  TBIL: 0.4 mg/dL
  TC: 69.4 mg/dL
  TG: 25.6 mg/dL
  TP: 5.4 g/dL
  gamma-GTP: 1.2 IU/L
[8]
  TERMINAL_BW: 200.2 g
  APTT: 16.8 s
  Bas: 0%
  Eos: 0.6%
  Fbg: 208.8 mg/dL
  Hb: 13.4 g/dL
  Ht: 40.5%
  Lym: 84.2%
  MCH: 21.5 pg
  MCHC: 33%
  MCV: 65.1 fL
  Mono: 7%
  Neu: 8.2%
  PT: 11.9 s
  Plat: 105 x10_4/uL
  RBC: 621.8 x10_4/ul
  Ret: 8.9%
  WBC: 88.7 x10_2/uL
  KIDNEY_L: 0.9 g
  KIDNEY_R: 0.9 g
  KIDNEY_TOTAL: 1.9 g
  LIVER: 8.9 g
  A/G: 2.2
  ALP: 948 IU/L
  ALT: 44 IU/L
  AST: 77.2 IU/L
  BUN: 17.8 mg/dL
  CRE: 0.5 mg/dL
  Ca: 11.2 mg/dL
  Cl: 105.6 meq/L
  DBIL: 0.006 mg/dL
  GLC: 180.4 mg/dL
  IP: 9.8 mg/dL
  K: 5 meq/L
  LDH: 147 IU/L
  Na: 141.6 meq/L
  PL: 142.6 mg/dL
  RALB: 3.8 g/dL
  TBIL: 0.3 mg/dL
  TC: 74 mg/dL
  TG: 50.2 mg/dL
  TP: 5.6 g/dL
  gamma-GTP: 1 IU/L
